From US6040338A, “N,n-bis(sulfonyl)hydrazines useful as antineoplastic agents” (Yale University, priority 1997, dated 2000)

Key:
[1] = system: CHO-K1/dhfr^- cells transfected with DT-diaphorase cDNA; test: Colony-forming assay, CHO-K1/dhfr^- cells overexpressing DT-diaphorase; assay type: cell-based, Chinese hamster; conditions: 133-fold overexpression versus parental; FIG. 4
Protocol: (§1) The ability of compounds 10h, 11, 12, and 14 to exert preferential toxicity to hypoxic cells was evaluated using the EMT6 mammary carcinoma by methodology described previously (Rockwell, S., Keyes, S. R., and Sartorelli, A. C. Rad. Res. 116: 100-113 (1988); Keyes, S. R., Rockwell, S., and Sartorelli, A. C. Cancer Res. 45: 213-216 (1985)). Briefly, exponentially growing monolayers of EMT6 (or CHO-K1/dhfr clone) were exposed to a continuously flowing 95% N2 /5% CO2 humidified atmosphere for 2 h to produce radiobiologic hypoxia. Parallel flasks were maintained similarly in humidified 95% air/5% CO2. Without breaking the hypoxia, cells were exposed to various concentrations of the test agent for 1 hr. Cell survival was then measured by colony formation.
CHO-K1/dhfr cells were used to examine the role of the reductive enzymes NADPH:cytochrome P450 reductase and DT-diaphorase in the activation of compounds 10h and 12 in situ. […]
(§2) The cytotoxicity of compound loh was evaluated in aerobic and hypoxic Chinese hamster ovary (CHO-K1/dhfr^-) cells transfected with and overexpressing cDNAs for NADPH:cytochrome P450 reductase (27-fold more than parental cells, FIG. 3) or DT-diaphorase (133-fold more than parental cells, FIG. 4), two reductases with the potential to activate compound 10h. […]

CHO-K1/dhfr^- cells = test: Colony-forming assay, aerobic and hypoxic CHO-K1/dhfr^- cells; assay type: cell-based, Chinese hamster
Protocol: as §1
CHO-K1/dhfr cells were used to examine the role of the reductive enzymes NADPH:cytochrome P450 reductase and DT-diaphorase in the activation of compounds 10h and 12 in situ. Clones of CHO-K1/dhfr^- cells transfected with and overexpressing cDNAs for each of these enzymes were used for this purpose (Belcourt, M. F., Hodnick, W. F., Rockwell, S., and Sartorelli, A. C. Proc. Natl. Acad. Sci. USA 93: 456-460 (1996); Belcourt, M. F., Hodnick, W. F., Rockwell, S., and Sartorelli, A. C. Biochem. Pharmacol. 51: 1669-1678 (1996)).
The cytotoxicity of compound loh was evaluated in aerobic and hypoxic Chinese hamster ovary (CHO-K1/dhfr^-) cells transfected with and overexpressing cDNAs for NADPH:cytochrome P450 reductase (27-fold more than parental cells, FIG. 3) or DT-diaphorase (133-fold more than parental cells, FIG. 4), two reductases with the potential to activate compound 10h. In FIGS. 3 and 4, points are means of duplicate determinations. […]
(§3) Compound 12 was evaluated for its ability to exert preferential toxicity to hypoxic EMT6 cells relative to their aerobic counterparts. […]

GST = test: Activation by GST-catalyzed thiolysis; assay type: in vitro ADME
Protocol: (§4) The rates of activation of compounds 10a-h were measured in 1 mM phosphate buffer (pH 7.4, 37° C.) alone, 1 mM phosphate buffer containing 5 mM GSH (pH 7.4, 37° C.), and in 1 mM phosphate buffer containing 5 mM GSH and 17.5 U/ml of GST (pH 7.4, 37° C.) (Table 3).

L1210 leukemia [2] = test: Survival time and body weight of mice bearing the L1210 leukemia; assay type: in vivo, mice (CD2 F1); conditions: Table 4; i.p. once daily for 6 days at optimum daily dose (10a 60, 10b 25, 10c 12.5, 10d-h 30 mg/kg)
Protocol: The ascites cell form of leukemia L1210 was obtained from the Frederick Cancer Research Facility, Division of Cancer Treatment Tumor Repository of the National Cancer Institute, and was maintained by serial passage in tissue culture. Every 8 weeks, tumor cells were injected intraperitoneally into 5 donor CD2 F1 mice 8-10 weeks of age and were allowed to grow for 7 days. The peritoneal fluid was withdrawn, and the suspension was centrifuged for 5 min at 1600×g. The supernatant was decanted, and 10^5 cells/ml were seeded into 10 ml of RPMI 1640 medium supplemented with 10% fetal bovine serum and 1% L-glutamine (200 mM) and once again maintained in culture. To assay for antitumor activity, 0.1 ml of the cell suspension containing 10^5 leukemia cells was injected into each recipient mouse. […] Each drug was administered intraperitoneally as a solution in 100% dimethyl sulfoxide, in a volume not exceeding 25 μl. […] Mice were weighed during the course of the experiments, and the percentage change in body weight from onset to termination of therapy was used as an indication of drug toxicity. Determination of the sensitivity of neoplasms to these agents was based upon the prolongation of survival time afforded by the drug treatments.
The antitumor activity of compounds 10a-h and 16 were assessed in mice bearing the L1210 leukemia. The results of these tests are summarized in Tables 4 and 5 which show the effects of 2-alkoxycarbonyl- and 2-aryloxycarbonyl-1,2-bis(methylsulfonyl)-1-(2-chloroethyl)hydrazines on the survival time of mice bearing the L1210 leukemia.
In Table 4, the optimum daily dose was administered once per day for six consecutive days, beginning 24 hours after tumor implantation, with 5-10 mice being used per group. In Table 5, multiple dosages of compound 16 are indicated. "Av Δ wt" refers to the average percent change in body weight from onset to termination of therapy. "% T/C" refers to the average survival time of treated/control mice×100. Cures (60-day survivors) are listed separately and are not included in this calculation.

[3] = system: CHO-K1/dhfr^- cells transfected with NADPH:cytochrome P450 reductase cDNA; test: Colony-forming assay, CHO-K1/dhfr^- cells overexpressing NADPH:cytochrome P450 reductase; assay type: cell-based, Chinese hamster
Protocol: as §1, with “formation. […]” for “formation.”
as §2, §3

[4] = Activation by hydrolysis in phosphate buffer; assay type: physicochemical
Protocol: as §4

[5] = Activation by thiolysis (GSH); assay type: in vitro ADME
Protocol: as §4

[6] = system: EMT6 mammary carcinoma cells; test: Colony-forming assay, EMT6 cells under hypoxic or aerobic conditions; assay type: cell-based, mouse; conditions: 1 hr exposure
Protocol: as §1
The cytotoxicity of compound 10h was evaluated against EMT6 mouse mammary carcinoma cells in vitro under aerobic and hypoxic conditions using the colony-forming assay described above. FIG. 1 depicts the survival of EMT6 cells exposed to various concentrations of compound 10h for 1 hr under hypoxic or aerobic conditions in vitro. Points are the geometric means of two or more independent determinations of surviving fractions. The SEMs are shown where n≥3 and where the error is larger than the point size. Open triangles represent aerobic data points and filled triangles represent hypoxic data points.
Compound 12 was evaluated for its ability to exert preferential toxicity to hypoxic EMT6 cells relative to their aerobic counterparts. […] Points are geometric means of two or more independent determinations of surviving fractions. The SEMs are shown where n≥3 and where the error is larger than the point size. Open triangles are aerobic data points, and filled triangles are hypoxic data points. […] Points are means of duplicate determinations. Open triangles are parental-aerobic; filled triangles are parental-hypoxic; open circles are NADPH:cytochrome P450 reductase-transfected-aerobic; filled circles are NADPH:cytochrome P450 reductase-transfected-hypoxic.

proteinase K or serum = test: Effect of proteinase K or serum on rate of decomposition/activation; assay type: in vitro ADME
[7] = Initial rate of hydrolysis in aqueous media at pH 7.4 and 37° C.; assay type: physicochemical
Protocol: For example, the initial rates of hydrolysis of 2-acetyl-1,2-bis(methylsulfonyl)-1-methylhydrazine (an acyl derivative shown in structural formula 5) and 1,2-bis(methylsulfonyl)-2-methoxycarbonyl-1-methylhydrazine (a carbamate compound shown in structural formula 6) were 0.3% and 0.007% per minute, respectively, at pH 7.4 and 37° C. [drawing 12]

GSH/GST = test: Relative rate of activation by GSH/GST in vitro; assay type: in vitro ADME; conditions: 1 mM compound, GSH 1 mM, GST 400 μg/ml; compound 6 = 100
Protocol: When R^3 is a methyl group, the rate of activation by GSH/GST is highly dependent upon the nature of the 2-alkoxy- or 2-aryloxycarbonyl moiety at the R^4 position.
The rate of activation of 2-(2-bromoethoxy)carbonyl-1,2-bis(methylsulfonyl)-1-methylhydrazine (compound 8) was elevated approximately 18-fold in vitro by the presence of GSH (1 mM) and GST (400 μg/ml), compared to buffer alone.

host animals = conditions: in vivo; cited from earlier work
tumor = conditions: in vivo; cited from earlier work
L1210 leukemia [8] = conditions: single intraperitoneal dose; cited from earlier work

Compound: CS(=O)(=O)N(CCCl)N(C(=O)OCc1ccc([N+](=O)[O-])cc1)S(C)(=O)=O [Compound 10h, 1,2-Bis(methylsulfonyl)-1-(2-chloroethyl)-2-[(4-nitrobenzyloxy)carbonyl]hydrazine]
- kill of hypoxic or oxygenated cells on overexpression of DT-diaphorase (in words) [1]: did not result in an increase in the kill of either hypoxic or oxygenated cells
- sensitivity of CHO-K1/dhfr^- cells compared with EMT6 cells (in words) (CHO-K1/dhfr^- cells; FIGS. 3 and 4): less sensitive
- sensitivity of hypoxic CHO-K1/dhfr^- cells compared with aerobic counterparts (in words) (CHO-K1/dhfr^- cells; hypoxic versus aerobic, FIGS. 3 and 4): more sensitive
- Calculated Activation Rate due to Catalyzed Thiolysis (5 mM GSH + 17.5 U/ml GST) (GST; 1 mM phosphate buffer, 5 mM GSH, 17.5 U/ml GST, pH 7.4, 37° C.): 20.5 nmol/mL/min
- rate of activation when thiolysis is catalyzed by GST (in words) (GST; GSH + GST): relatively high rate of activation
- Av Δ wt (average percent change in body weight from onset to termination of therapy) (L1210 leukemia [2]): -8.6%
- sensitivity of cells overexpressing NADPH:cytochrome P450 reductase (in words) ([3]; 27-fold overexpression versus parental, FIG. 3): Increased sensitivity
- Calculated Activation Rate due to Hydrolysis ([4]; 1 mM phosphate buffer, pH 7.4, 37° C.): not detected
- hydrolysis in phosphate buffer (in words) ([4]; phosphate buffer, physiological pH): little or no hydrolysis
- Calculated Activation Rate due to Thiolysis (5 mM GSH) ([5]; 1 mM phosphate buffer, 5 mM GSH, pH 7.4, 37° C.): 0.06 nmol/mL/min
- rate of thiolysis with GSH (in words) ([5]; reacted with GSH): extremely slow rate of thiolysis
- toxicity to aerobic EMT6 cells (in words) ([6]; 40 μM, aerobic (FIG. 1)): relatively minor toxicity
- log reduction at 40 µM ([6]; Mus musculus, EMT6, 40 μM, hypoxic (FIG. 1), read-out: kill of hypoxic EMT6 cells): 2

Compound: COc1cc(COC(=O)N(N(CCCl)S(C)(=O)=O)S(C)(=O)=O)c([N+](=O)[O-])cc1OC [Compound 12, 1,2-Bis(methylsulfonyl)-1-(2-chloroethyl)-2-[(4,5-dimethoxy-2-nitrobenzyloxy)carbonyl]hydrazine]
- cytotoxicity to aerobic and hypoxic CHO-K1/dhfr^- cells (in words) (CHO-K1/dhfr^- cells; 1 hr (FIG. 6)): results similar to those described for compound 10h
- cytotoxicity to hypoxic versus aerobic cells overexpressing NADPH-cytochrome P450 reductase ([3]; 1 hr, hypoxic versus aerobic (FIG. 6)): > 3000 times
- toxicity to aerobic EMT6 cells (in words) ([6]; 50 μM, aerobic (FIG. 5)): relatively minor toxicity
- log reduction at 50 µM ([6]; Mus musculus, EMT6, 50 μM, hypoxic (FIG. 5), read-out: kill of hypoxic EMT6 cells): > 3

Compound: COC(=O)N(N(C)S(C)(=O)=O)S(C)(=O)=O [Compound 6, 1,2-Bis(methylsulfonyl)-2-(methoxycarbonyl)-1-methylhydrazine]
- increase of rate of decomposition by proteinase K or serum (proteinase K or serum; levels that enhanced activation of compound 5 almost 10-fold): not appreciably increased
- initial rate of hydrolysis [7]: 0.007 % per minute
- Relative Activation Rate by GSH/GST (GSH/GST): 100

Compound: CC(=O)N(N(CCCl)S(C)(=O)=O)S(C)(=O)=O [Compound 4]
- host toxicity (in words) (host animals): considerably less toxic to host animals than compound 2
- antitumor/antineoplastic activity (in words) (tumor): broad-spectrum antitumor activity

Compound: CS(=O)(=O)N(CCCl)N(C(=O)NCCCl)S(C)(=O)=O [Compound 3]
- host toxicity (in words) (host animals): considerably less toxic to host animals than compound 2
- antitumor/antineoplastic activity (in words) (tumor): broad-spectrum antitumor activity

Compound: CS(=O)(=O)NN(CCCl)S(C)(=O)=O [Compound 2, 1,2-bis(methylsulfonyl)-1-(2-chloroethyl)hydrazine]
- cures of mice bearing the L1210 leukemia (L1210 leukemia [8]): 40%
- host toxicity (in words) (host animals): considerable host toxicity
- active dosage range (in words) (tumor): active only over a narrow dosage range
- antitumor/antineoplastic activity (in words) (tumor): most active compound of this class

Compound: CC(=O)N(N(C)S(C)(=O)=O)S(C)(=O)=O [Compound 5, 2-acetyl-1,2-bis(methylsulfonyl)-1-methylhydrazine, reference compound]
- enhancement of rate of activation by proteinase K or serum (proteinase K or serum; levels of proteinase K or serum): ~10 fold
- initial rate of hydrolysis [7]: 0.3 % per minute

Compound: CCOC(=O)N(N(C)S(C)(=O)=O)S(C)(=O)=O [Compound 7, 1,2-Bis(methylsulfonyl)-2-(ethoxycarbonyl)-1-methylhydrazine]
- Relative Activation Rate by GSH/GST (GSH/GST): 30
